According to PubChem BioAssay (NCI):
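Step 1: Grow cells in 96-well plates. Step 2: Expose to compound for 48 hours at 5 concentrations. Step 3: Interpolate endpoints linearly; if unreached, use highest concentration. GI50: concentration for 50% inhibition of growth. Definition used: TGI = concentration required for complete inhibition of growth.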

Columns and labels:
Test in all cases: NCI-60 cell line screen, 48 h
[1] = test system: 786-0 renal
[2] = test system: A498 renal
[3] = test system: A549 NSCLC
[4] = test system: ACHN renal
[5] = test system: BT-549 breast
[6] = test system: CAKI-1 renal
[7] = test system: CCRF-CEM leukemia
[8] = test system: COLO 205 colon
[9] = test system: DU-145 prostate
[10] = test system: EKVX NSCLC
[11] = test system: HCC-2998 colon
[12] = test system: HCT-116 colon
[13] = test system: HCT-15 colon
[14] = test system: HL-60(TB) leukemia
[15] = test system: HOP-62 NSCLC
[16] = test system: HOP-92 NSCLC
[17] = test system: HS 578T breast
[18] = test system: HT29 colon
[19] = test system: IGROV1 ovarian
[20] = test system: K-562 leukemia
[21] = test system: KM12 colon
[22] = test system: LOX IMVI melanoma
[23] = test system: M14 melanoma
[24] = test system: MALME-3M melanoma
[25] = test system: MCF7 breast
[26] = test system: MDA-MB-231 breast
[27] = test system: MDA-MB-435
[28] = test system: MOLT-4 leukemia
[29] = test system: NCI-H23 lung
[30] = test system: NCI-H460 lung
[31] = test system: NCI-H522 lung
[32] = test system: NCI/ADR-RES ovarian
[33] = test system: OVCAR-3 ovarian
[34] = test system: OVCAR-4 ovarian
[35] = test system: OVCAR-5 ovarian
[36] = test system: OVCAR-8 ovarian
[37] = test system: PC-3 prostate
[38] = test system: RPMI-8226 leukemia
[39] = test system: RXF 393 renal
[40] = test system: SF-268 CNS
[41] = test system: SF-295 CNS
[42] = test system: SF-539 CNS
[43] = test system: SK-MEL-2 melanoma
[44] = test system: SK-MEL-28 melanoma
[45] = test system: SK-MEL-5 melanoma
[46] = test system: SN12C renal
[47] = test system: SNB-19 CNS
[48] = test system: SNB-75 CNS
[49] = test system: SR leukemia
[50] = test system: SW-620 colon
[51] = test system: T-47D breast
[52] = test system: TK-10 renal
[53] = test system: U251 CNS
[54] = test system: UACC-257 melanoma
[55] = test system: UACC-62 melanoma
[56] = test system: UO-31 renal

## CO[C@H]1/C=C/[C@@](C)(O)/C=C/C(=O)O[C@H](C)[C@@H](C)CC/C=C/1C
[1]
  GI50: 16.8 µM
  TGI: 34.3 µM
[2]
  GI50: 12 µM
  TGI: 32 µM
[3]
  GI50: 23 µM
  TGI: > 100 µM
[4]
  GI50: 18.7 µM
  TGI: 55.9 µM
[5]
  GI50: 19.8 µM
  TGI: 63.6 µM
[6]
  GI50: 21.1 µM
  TGI: 69.7 µM
[7]
  GI50: 10.1 µM
  TGI: > 100 µM
[8]
  GI50: 20.6 µM
  TGI: 47.8 µM
[9]
  GI50: 22.4 µM
  TGI: 71.8 µM
[10]
  GI50: 15.7 µM
  TGI: 76.8 µM
[11]
  GI50: 15.6 µM
  TGI: 30.7 µM
[12]
  GI50: 12.9 µM
  TGI: 26.2 µM
[13]
  GI50: 7.35 µM
  TGI: 22.5 µM
[14]
  GI50: 22.7 µM
  TGI: 54.5 µM
[15]
  GI50: 16.3 µM
  TGI: 59.2 µM
[16]
  GI50: 7.62 µM
  TGI: 26.1 µM
[17]
  GI50: 23.9 µM
  TGI: > 100 µM
[18]
  GI50: 19.4 µM
  TGI: 48.7 µM
[19]
  GI50: 17.2 µM
  TGI: 62.3 µM
[20]
  GI50: 15.2 µM
  TGI: > 100 µM
[21]
  GI50: 15.8 µM
  TGI: 41.2 µM
[22]
  GI50: 11.3 µM
  TGI: 26 µM
[23]
  GI50: 15.7 µM
  TGI: 43.3 µM
[24]
  GI50: 13.1 µM
  TGI: 37.3 µM
[25]
  GI50: 16.5 µM
  TGI: 56 µM
[26]
  GI50: 14.5 µM
  TGI: 45.1 µM
[27]
  GI50: 23.1 µM
  TGI: 83.1 µM
[28]
  GI50: 21.2 µM
  TGI: 98.6 µM
[29]
  GI50: 14.8 µM
  TGI: 32.4 µM
[30]
  GI50: 17.4 µM
  TGI: 48.6 µM
[31]
  GI50: 15.2 µM
  TGI: 36.4 µM
[32]
  GI50: 15 µM
  TGI: 40.5 µM
[33]
  GI50: 11.3 µM
  TGI: 29.4 µM
[34]
  GI50: 14.9 µM
  TGI: 76.3 µM
[35]
  GI50: 17.7 µM
  TGI: 39.2 µM
[36]
  GI50: 26.9 µM
  TGI: > 100 µM
[37]
  GI50: 18.2 µM
  TGI: 53.7 µM
[38]
  GI50: 15.5 µM
  TGI: 97.3 µM
[39]
  GI50: 11 µM
  TGI: 24.5 µM
[40]
  GI50: 19.7 µM
  TGI: > 100 µM
[41]
  GI50: 16.5 µM
  TGI: 39.8 µM
[42]
  GI50: 15.2 µM
  TGI: 31.3 µM
[43]
  GI50: 23.6 µM
  TGI: 63.5 µM
[44]
  GI50: 16.9 µM
  TGI: 42.6 µM
[45]
  GI50: 14 µM
  TGI: 28.4 µM
[46]
  GI50: 17.6 µM
  TGI: 59.2 µM
[47]
  GI50: 21.9 µM
  TGI: 81.8 µM
[48]
  GI50: 17.5 µM
  TGI: 40.4 µM
[49]
  GI50: 15 µM
  TGI: > 100 µM
[50]
  GI50: 15.1 µM
  TGI: 35.7 µM
[51]
  GI50: 14.1 µM
  TGI: > 100 µM
[52]
  GI50: 19.7 µM
  TGI: 88.4 µM
[53]
  GI50: 14.2 µM
  TGI: 40.6 µM
[54]
  GI50: 26.7 µM
  TGI: 87.3 µM
[55]
  GI50: 13.8 µM
  TGI: 30 µM
[56]
  GI50: 8.38 µM
  TGI: 21.1 µM
